The values below come from patent US10947242B2, “[1,2,4]triazolo[1,5and#8208;A]pyrimidine compounds as PDE2 inhibitors” (Janssen Pharmaceutica NV, priority 2016, dated 2021).

What all share (type): biochemical
Assay [1] concerns the target T1, Human recombinant PDE2A (hPDE2A) (Homo sapiens, UniProt O00408).
T1 construct: His tag (inferred from metal chelate purification); made in house; host or cells: Sf9 insect cells (baculovirus)
As to the kind of experiment: In vitro assay PDE2A (SPA, 3H-cGMP hydrolysis). To be noted: for IC50: read-out: hPDE2A pIC50 (converted); for Emax: read-out: hPDE2A Emax.

Assay [2] concerns the target T2, Human recombinant PDE10A (hPDE10A) (Homo sapiens, UniProt Q9Y233).
T2 construct: His tag (inferred from metal chelate purification); made in house; host or cells: Sf9 insect cells (baculovirus)
As to the kind of experiment: In vitro assay PDE10A, human clone (SPA, 3H-cAMP hydrolysis). To be noted: human clone (h), default; for Emax: read-out: hPDE10A2 Emax; for IC50: read-out: hPDE10A2 pIC50 (converted). As for the experimental part: Rat recombinant PDE10A (rPDE10A2) was expressed in Sf9 cells using a recombinant rPDE10A baculovirus construct. […] Tested compounds were dissolved and diluted in 100% DMSO to a concentration 100 fold of the final concentration in the assay. Human recombinant PDE10A ([…]) was expressed in Sf9 cells using a recombinant hPDE10A baculovirus that was made and amplified in house. […] Compound dilutions (0.4 μl) were added in 384 well plates to 20 μl of incubation buffer (50 mM Tris pH 7.8, 8.3 mM MgCl2, 1.7 mM EGTA). 10 μl of rPDE10A or hPDE10A enzyme in incubation buffer was added and the reaction was started by addition of 10 μl substrate to a final concentration of 60 nM cAMP and 0.008 μCi ^3H-cAMP. The reaction was incubated for 60 minutes at room temperature. […] After sedimentation of the beads during 30 minutes the radioactivity was measured in a Perkin Elmer Topcount scintillation counter and results were expressed as cpm. For blanc values the enzyme was omitted from the reaction and replaced by incubation buffer. Control values were obtained by addition of a final concentration of 1% DMSO instead of compound.

Assay [3] deals with T3, Human recombinant PDE3A (hPDE3A) (Homo sapiens, UniProt Q14432).
T3 construct: purchased Scottish Biomedical; host or cells: Sf9 insect cells
T3 sequence (Q14432 whole entry): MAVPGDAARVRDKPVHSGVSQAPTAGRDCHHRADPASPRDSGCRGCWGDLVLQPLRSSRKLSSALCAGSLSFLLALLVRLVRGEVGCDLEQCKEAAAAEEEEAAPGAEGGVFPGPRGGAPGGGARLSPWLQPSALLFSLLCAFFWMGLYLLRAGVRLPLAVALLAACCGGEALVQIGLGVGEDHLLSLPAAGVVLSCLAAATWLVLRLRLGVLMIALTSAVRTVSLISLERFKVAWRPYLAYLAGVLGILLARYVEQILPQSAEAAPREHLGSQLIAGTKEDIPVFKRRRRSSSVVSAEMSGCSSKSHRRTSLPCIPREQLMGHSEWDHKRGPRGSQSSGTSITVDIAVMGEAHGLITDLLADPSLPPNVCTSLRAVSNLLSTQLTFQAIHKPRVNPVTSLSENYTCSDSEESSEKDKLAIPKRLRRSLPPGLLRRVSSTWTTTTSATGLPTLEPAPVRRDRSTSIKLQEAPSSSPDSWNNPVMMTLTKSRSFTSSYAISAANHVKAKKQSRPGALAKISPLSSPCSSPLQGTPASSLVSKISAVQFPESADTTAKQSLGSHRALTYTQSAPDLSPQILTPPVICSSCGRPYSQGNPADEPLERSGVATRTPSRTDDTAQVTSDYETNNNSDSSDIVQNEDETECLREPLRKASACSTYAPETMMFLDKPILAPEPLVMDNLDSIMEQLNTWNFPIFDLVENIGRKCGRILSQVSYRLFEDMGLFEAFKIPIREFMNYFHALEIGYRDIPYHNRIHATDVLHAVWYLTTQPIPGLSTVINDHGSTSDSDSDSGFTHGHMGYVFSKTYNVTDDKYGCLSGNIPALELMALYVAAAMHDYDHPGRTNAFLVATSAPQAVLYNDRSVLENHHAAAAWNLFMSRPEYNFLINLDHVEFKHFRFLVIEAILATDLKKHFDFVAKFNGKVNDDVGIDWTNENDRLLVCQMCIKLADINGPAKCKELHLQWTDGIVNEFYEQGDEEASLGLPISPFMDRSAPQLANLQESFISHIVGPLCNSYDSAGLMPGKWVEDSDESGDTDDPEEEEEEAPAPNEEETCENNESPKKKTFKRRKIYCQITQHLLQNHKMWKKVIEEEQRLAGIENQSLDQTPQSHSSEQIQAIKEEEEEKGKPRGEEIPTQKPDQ
Briefly: In vitro assay PDE3A (SPA, 3H-cAMP hydrolysis).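 On all read-outs here: the method names PDE3A and the table heading PDE3B.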 To be noted: for IC50: hPDE3B pIC50, read-out: pIC50 (converted); for Emax: read-out: hPDE3B Emax, read-out: Emax. How it is done:
Human recombinant PDE3A (hPDE3A) was supplied as a partially purified insect cell lysate by Scottish Biomedical, it was cloned from human brain and expressed in Sf9 cells. Tested compounds were dissolved and diluted in 100% DMSO to a concentration 100 fold of the final concentration in the assay. Compound dilutions (0.4 μl) were added in 384 well plates to 20 μl of incubation buffer (50 mM Tris pH 7.8, 8.3 mM MgCl2, 1.7 mM EGTA). 10 μl of hPDE3A enzyme in incubation buffer was added and the reaction was started by addition of 10 μl substrate to a final concentration of 0.4 μM cAMP and 2.4 μCi/ml [^3H]-cAMP. The reaction was incubated for 60 min at room temperature. […] After sedimentation of the beads during 30 min the radioactivity was measured in a Perkin Elmer Topcount scintillation counter and results were expressed as cpm. For blanc values the enzyme was omitted from the reaction and replaced by incubation buffer. Control values were obtained by addition of a final concentration of 1% DMSO instead of compound.

Where [4] appears, read: human recombinant PDE2A, 10 μM cGMP substrate.

SMILES strings stand for the structures. Where two headings read alike, the source gives them in different places.

T1 sequence (O00408 whole entry): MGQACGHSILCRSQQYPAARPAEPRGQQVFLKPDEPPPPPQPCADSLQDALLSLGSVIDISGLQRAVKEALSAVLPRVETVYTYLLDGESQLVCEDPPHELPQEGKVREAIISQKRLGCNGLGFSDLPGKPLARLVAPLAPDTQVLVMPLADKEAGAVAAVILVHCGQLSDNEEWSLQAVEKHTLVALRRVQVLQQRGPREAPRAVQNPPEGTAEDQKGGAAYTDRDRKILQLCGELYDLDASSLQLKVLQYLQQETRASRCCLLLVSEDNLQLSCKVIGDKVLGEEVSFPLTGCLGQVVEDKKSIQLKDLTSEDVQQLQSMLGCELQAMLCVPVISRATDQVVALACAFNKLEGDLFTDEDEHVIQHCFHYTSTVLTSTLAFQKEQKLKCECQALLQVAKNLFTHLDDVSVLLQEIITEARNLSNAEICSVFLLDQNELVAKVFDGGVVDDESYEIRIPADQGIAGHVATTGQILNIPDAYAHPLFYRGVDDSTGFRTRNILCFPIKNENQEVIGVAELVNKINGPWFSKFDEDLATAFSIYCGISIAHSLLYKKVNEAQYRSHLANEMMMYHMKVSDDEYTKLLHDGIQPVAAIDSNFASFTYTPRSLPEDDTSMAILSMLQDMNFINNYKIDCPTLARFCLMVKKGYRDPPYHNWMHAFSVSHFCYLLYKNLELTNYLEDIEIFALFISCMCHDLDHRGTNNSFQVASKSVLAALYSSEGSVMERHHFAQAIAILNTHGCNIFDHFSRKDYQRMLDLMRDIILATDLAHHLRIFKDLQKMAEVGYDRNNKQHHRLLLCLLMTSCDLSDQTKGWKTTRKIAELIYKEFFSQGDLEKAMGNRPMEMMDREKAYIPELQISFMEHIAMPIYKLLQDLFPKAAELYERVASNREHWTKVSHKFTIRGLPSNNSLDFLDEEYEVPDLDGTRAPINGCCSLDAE
T2 sequence (Q9Y233 267-1055): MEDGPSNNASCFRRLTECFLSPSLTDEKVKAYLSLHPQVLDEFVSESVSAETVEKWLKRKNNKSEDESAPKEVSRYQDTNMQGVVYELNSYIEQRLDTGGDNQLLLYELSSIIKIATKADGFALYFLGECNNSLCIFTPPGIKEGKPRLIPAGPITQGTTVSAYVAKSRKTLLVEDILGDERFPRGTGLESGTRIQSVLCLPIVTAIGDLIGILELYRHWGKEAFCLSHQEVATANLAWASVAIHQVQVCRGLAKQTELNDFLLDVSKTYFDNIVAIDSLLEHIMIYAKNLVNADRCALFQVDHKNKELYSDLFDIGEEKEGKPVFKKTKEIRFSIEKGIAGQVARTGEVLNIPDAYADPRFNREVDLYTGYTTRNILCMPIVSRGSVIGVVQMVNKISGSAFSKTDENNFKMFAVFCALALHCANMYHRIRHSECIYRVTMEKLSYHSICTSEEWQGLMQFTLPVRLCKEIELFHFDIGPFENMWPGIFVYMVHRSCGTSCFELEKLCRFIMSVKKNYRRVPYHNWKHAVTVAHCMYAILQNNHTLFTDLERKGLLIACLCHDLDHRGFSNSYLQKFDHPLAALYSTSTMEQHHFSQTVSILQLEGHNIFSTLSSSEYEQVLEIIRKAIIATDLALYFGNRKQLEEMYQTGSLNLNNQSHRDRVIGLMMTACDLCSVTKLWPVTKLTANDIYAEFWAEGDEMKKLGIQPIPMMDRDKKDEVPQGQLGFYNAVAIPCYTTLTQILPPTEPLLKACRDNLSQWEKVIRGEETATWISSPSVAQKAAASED

A word on the Emax: it is the greatest response seen or fitted, relative to the assay's reference. As for `Cc1cc([C@@H]2CN(C(=O)c3cnc(Cl)c(Cl)c3)CC[C@H]2C)n2ncnc2n1` [Compound 17], the IC50 in assay [1] (setting [4]) is 4.9 nM; in assay [1] it was 4.9 nM; in assay [2], 81.3 nM; in assay [3] it was 4.27 µM. Also, the Emax in assay [1] (human recombinant PDE2A) was 99%; in assay [1], 99%; in assay [2], 97%; in assay [3], 74%.
In the case of `Cc1cc([C@@H]2CN(C(=O)c3cccc4nc(C)oc34)CC[C@H]2C)n2ncnc2n1` [Compound 19], the IC50 in assay [1] (setting [4]) is 10.5 nM; in assay [1], 10.5 nM; in assay [2], 129 nM; in assay [3], 3.09 µM. In addition, the Emax in assay [1] (human recombinant PDE2A) was found to be 101%; in assay [1] it was 101%; in assay [2] it was 96%; in assay [3], 79%.
As for `Cc1cc([C@@H]2CN(C(=O)c3cnc4ccc(C(F)(F)F)cn34)CC[C@H]2C)n2ncnc2n1` [Compound 20], the IC50 is 12 nM in assay [1] (setting [4]), 12 nM in assay [1], 132 nM in assay [2] and 4.27 µM in assay [3]. Further, the Emax is 101% in assay [1] (human recombinant PDE2A), 101% in assay [1], 98% in assay [2] and 74% in assay [3].
Consider `Cc1cc([C@@H]2CN(C(=O)c3nc4ccccc4o3)CC[C@H]2C)n2ncnc2n1` [Compound 21], for which the IC50 in assay [1] (setting [4]) is 4.57 nM; in assay [1], 4.57 nM; in assay [2] it was 132 nM; in assay [3], 1.51 µM. The Emax in assay [1] (human recombinant PDE2A) stood at 99%; in assay [1], 99%; in assay [2], 97%; in assay [3], 89%.
As for `Cc1cc(C(=O)N2CC[C@H](C)[C@@](F)(c3cc(C(F)F)nc4ncnn34)C2)cc(C2CC2)n1` [Compound 24a], the IC50 in assay [1] (setting [4]) was 2570 nM; in assay [1], 2570 nM; in assay [2] it was more than 10000 nM; in assay [3], more than 10 µM. Also, the maximal effect (Emax) in assay [1] (human recombinant PDE2A) was 80%; in assay [1], 80%; in assay [2] it was 23%; in assay [3] it was 31%.
Take `Cc1cc(C(=O)N2CC[C@@H](C)[C@H](c3cc(C#N)nc4ncnn34)C2)cc(C)n1` [Compound 26a]: the “hPDE2A Emax” value in assay [1] and in assay [1] (human recombinant PDE2A) was 21 each time. The “hPDE2A pIC50” value in assay [1] and in assay [1] (setting [4]) was less than 5 throughout. Besides, the “hPDE10A2 Emax” value in assay [2] is listed as 7. The “hPDE10A2 pIC50” value in assay [2] was less than 5. The “hPDE3B Emax” value in assay [3] turned out to be 0.
For the compound `Cc1cc(C(=O)N2CC[C@H](C)[C@@H](c3cc(C#N)nc4ncnn34)C2)cc(C)n1` [Compound 26b], in assay [1], the “hPDE2A Emax” value is listed as 98 and the “hPDE2A pIC50” value is 8.17. Moreover, in assay [1] (human recombinant PDE2A), the “hPDE2A Emax” value is reported as 98. Further, the “hPDE2A pIC50” value in assay [1] (setting [4]) was 8.17. Besides, in assay [2], the “hPDE10A2 Emax” value was determined as 95 and the “hPDE10A2 pIC50” value is 6.63. Further, the “hPDE3B Emax” value in assay [3] came to 41.
For `C[C@H]1CCN(C(=O)c2ccc3ncsc3c2)C[C@]1(F)c1cc(C(F)F)nc2ncnn12` [Compound 34], the IC50 is 1950 nM in assay [1] (setting [4]), 1950 nM in assay [1], more than 10000 nM in assay [2] and more than 10 µM in assay [3]. Further, the Emax stood at 88% in assay [1] (human recombinant PDE2A), 88% in assay [1], 28% in assay [2] and 31% in assay [3].
On to `C[C@@H]1CCN(C(=O)c2ccnc(Cl)c2F)C[C@H]1c1cc(C(F)F)nc2ncnn12` [Compound 55], for which the IC50 is 12.6 nM in assay [1] (setting [4]), 12.6 nM in assay [1], 1780 nM in assay [2] and more than 10 µM in assay [3]. Also, the maximal response (Emax) in assay [1] (human recombinant PDE2A) is 101%; in assay [1], 101%; in assay [2], 83%; in assay [3] it was 41%.
Take `C[C@@H]1CCN(C(=O)c2ccnn2C)C[C@H]1c1cc(C(F)F)nc2ncnn12` [Compound 57]: the IC50 is 27.5 nM in assay [1] (setting [4]), 27.5 nM in assay [1], 3160 nM in assay [2] and more than 10 µM in assay [3]. Also, the Emax in assay [1] (human recombinant PDE2A) stood at 100%; in assay [1], 100%; in assay [2], 78%; in assay [3] it was 21%.
`C[C@@H]1CCN(C(=O)c2cn(C)cn2)C[C@H]1c1cc(C(F)F)nc2ncnn12` [Compound 58]: the IC50 in assay [1] (setting [4]) is 24.5 nM; in assay [1], 24.5 nM; in assay [2], 4470 nM; in assay [3], more than 10 µM. In addition, the Emax in assay [1] (human recombinant PDE2A) came out at 99%; in assay [1], 99%; in assay [2], 69%; in assay [3], 18%.
On to `CC(C)c1n[nH]cc1C(=O)N1CC[C@@H](C)[C@H](c2cc(C(F)F)nc3ncnn23)C1` [Compound 61], for which the IC50 in assay [1] (setting [4]) was 4.37 nM; in assay [1], 4.37 nM; in assay [2] it was 457 nM; in assay [3] it was more than 10 µM. In addition, the Emax in assay [1] (human recombinant PDE2A) amounted to 101%; in assay [1] it was 101%; in assay [2], 92%; in assay [3], 45%.
Regarding `Cc1cc(C(=O)N2[C@H]3CC[C@@H]2[C@H](c2cc(C(F)F)nc4ncnn24)CC3)c(F)cn1` [Compound 62], the maximum response (Emax) in assay [1] was 77%; in assay [2], 36%; in assay [3] it was 8%. The IC50 in assay [1] is 3020 nM; in assay [2] it was more than 10000 nM; in assay [3], more than 10 µM.
Consider `C[C@@H]1CCN(C(=O)c2cccc3c2OC(F)(F)O3)C[C@H]1c1cc(C(F)F)nc2ncnn12` [Compound 63], for which the IC50 in assay [1] (setting [4]) is 7.24 nM; in assay [1], 7.24 nM; in assay [2], 871 nM; in assay [3] it was 6.92 µM. In addition, the Emax in assay [1] (human recombinant PDE2A) came to 100%; in assay [1] it was 100%; in assay [2], 89%; in assay [3], 60%.
As for `Cc1cc(C(=O)N2CC[C@@H](C)[C@H](c3cc(C(F)F)nc4ncnn34)C2)c(C)s1` [Compound 65], the IC50 in assay [1] (setting [4]) is 1.26 nM; in assay [1], 1.26 nM; in assay [2], 251 nM; in assay [3], 6.76 µM. Moreover, the Emax came out at 100% in assay [1] (human recombinant PDE2A), 100% in assay [1], 95% in assay [2] and 70% in assay [3].
Consider `C[C@@H]1CCN(C(=O)c2ccn(C)c2)C[C@H]1c1cc(C(F)F)nc2ncnn12` [Compound 67], for which the IC50 is 2.57 nM in assay [1] (setting [4]), 2.57 nM in assay [1], 288 nM in assay [2] and more than 10 µM in assay [3]. Besides, the Emax in assay [1] (human recombinant PDE2A) amounted to 99%; in assay [1], 99%; in assay [2] it was 94%; in assay [3] it was 49%.
Regarding `COc1c(C)cc(C(=O)N2CC[C@@H](C)[C@@](F)(c3cc(C(F)F)nc4ncnn34)C2)cc1C` [Compound 75], the IC50 in assay [1] (setting [4]) was 2950 nM; in assay [1] it was 2950 nM; in assay [2], more than 10000 nM; in assay [3], more than 10 µM. Moreover, the Emax came to 81% in assay [1] (human recombinant PDE2A), 81% in assay [1], 27% in assay [2] and 22% in assay [3].
In the case of `Cc1cc(C(=O)N2CC[C@@H](C)[C@@](F)(c3cc(C(F)F)nc4ncnn34)C2)cc(C)n1` [Compound 81], the IC50 in assay [1] (setting [4]) is 7080 nM; in assay [1] it was 7080 nM; in assay [2], more than 10000 nM; in assay [3] it was more than 10 µM. The Emax in assay [1] (human recombinant PDE2A) amounted to 59%; in assay [1], 59%; in assay [2], 1%; in assay [3], 17%.
`Cc1cc(C(=O)N2[C@H]3CC[C@H](c4cc(C(F)F)nc5ncnn45)[C@@H]2CC3)c(F)cn1` [Compound 86]: the maximal response (Emax) in assay [1] is 100%; in assay [2] it was 40%; in assay [3] it was 34%. For the same compound, the IC50 was 50.1 nM in assay [1], more than 10000 nM in assay [2] and more than 10 µM in assay [3].
